According to paper PMC6687188, “Novel lactate dehydrogenase inhibitors with in vivo efficacy against Cryptosporidium parvum” (PLoS Pathogens, 2019):
Starred links: 1 amine or outer side, 2 acyl side, 3 side chain; linkers in the order of their positions; H or OH if unused. Positions of bridges follow the written chain, without caps; N, C: chain ends. Non-standard residues stand in square brackets, D forms with d. Residues, ends and D or L forms follow the SMILES beside them. Chains are numbered I, II in the order given. ξ: configuration not given here. *: point of attachment. Actinocin(1to9) = Cc1c2oc3c(C)ccc(C(=O)[*:2])c3nc-2c(C(=O)[*:1])c(N)c1=O; ξNMe2Val = CC(C)C(C(=O)*)N(C)C; NMeV = CN[CH](C(=O)O)C(C)C; NHBn = c1ccc(CN*)cc1; Sar = CNCC(=O)O

Target: recombinant CpLDH protein (Cryptosporidium parvum, UniProt Q9GT92, F198L/K295E/R251K)

Compound | MEAN CpLDH INHIBITION (%)
Cc1c(N=Cc2ccc(N(CCC#N)CCC#N)cc2)c(=O)n(-c2ccccc2)n1C [NSC620280] | -51.47%
O=S(=O)(O)SC/C=C\CSS(=O)(=O)O.[Na+] [NSC624161] | -27.85%
Cc1ccc([N+](=O)[O-])cc1NC(=O)c1cccc([N+](=O)[O-])c1O [NSC79451] | -40.98%
CC1(C)NC(=O)N(CCCCCCN2C(=O)NC(C)(C)C2=O)C1=O [NSC376791] | -26.30%
CCN(CC)C(=S)[S-].[Na+] [NSC4857] | -37.64%
O=[N+]([O-])c1cc(-c2nc(=S)[nH][nH]2)ccc1O [NSC635563] | -59.68%
COc1cc2c(c(OC)c1OC)-c1c(cc3c(c1OC)OCO3)CC(C)C(C)(O)C2OC(=O)c1ccccc1 (stereo not drawn) [NSC330516] | -37.93%
O=NN(CCCl)C(=O)NCc1ccc[n+]([O-])c1 [NSC307454] | -54.21%
COc1cc([C@@H]2c3cc4c(c(O)c3C[C@H]3COC(=O)[C@@H]32)OCO4)cc(OC)c1OC [NSC24819] | -66.99%
O=C(C[n+]1ccc2ccccc2c1)c1ccc2ccc3ccccc3c2c1 [NSC35489] | -39.94%
Oc1ccc(/C=N/NC(=S)Nc2cccnc2)nc1 [NSC185065] | -8.17%
C[n+]1ccc(Nc2ccc(NC(=O)c3ccc(Nc4cc[n+](C)c5ccc([N+](=O)[O-])cc45)cc3[N+](=O)[O-])cc2)cc1.Cl [NSC218439] | -11.45%
C[C@H](CN1CC(=O)NC(=O)C1)N1CC(=O)NC(=O)C1 [NSC169779] | -13.00%
CC[C@@]1(O)C[C@H](O)c2c(O)c3c(c(O)c2[C@H]1C(=O)OC)C(=O)c1cccc(O)c1C3=O [NSC196524] | -30.88%
CCOC(=O)C1=C(C)NC(=S)NC1c1ccccc1 (stereo not drawn) [NSC643910] | -38.49%
Nc1nc2n[nH]nc2c(=O)[nH]1 [NSC749] | -18.77%
CC1=C(N2CC2)C(=O)c2nc3n(c2C1=O)CCC3OC(=O)CCl (stereo not drawn) [NSC651080] | -28.90%
O=C(O)c1ccc(NC(c2ccccc2)c2ccc3cccnc3c2O)cc1 (stereo not drawn) [NSC1011] | -0.99%
N#CC(=C1C=CC(=NO)C=C1)c1ccc(Cl)cc1 [NSC405158] | -30.77%
CN(C)c1ccc(/C=C2\C=Cc3ccccc32)cc1 [NSC80087] | -24.95%
CCCCCn1cc2c3c(cccc31)C1C=C(C)CN(C)[C@@H]1C2.Cc1ccc(C(=O)OC(C(=O)O)C(OC(=O)c2ccc(C)cc2)C(=O)O)cc1 (stereo not drawn) [NSC600681] | -36.35%
O=C1c2ccccc2-c2c1c1ccccc1c(=O)n2Cc1ccccc1 [NSC337612] | -26.65%
Nc1nc(SCc2ccccc2Cl)c2[nH]cnc2n1 [NSC36826] | -1.63%
CC(=O)c1sc2c(c1OC(=O)c1ccc(Cl)cc1Cl)c(=O)n(-c1ccccc1)c(=S)n2-c1ccccc1 [NSC671136] | -17.97%
NC(N)=N/N=C(\c1ccc(Cl)cc1)C1CC1 [NSC74420] | -7.03%

Compound | MEAN CpLDH INHIBITION (%)
C/C(=N\Nc1nc2ccccc2s1)c1ccncn1 [NSC693632] | 0.06%
NC(=O)c1c([N+](=O)[O-])cc(C(F)(F)F)cc1[N+](=O)[O-] [NSC622640] | -12.99%
COC(=O)c1ccccc1NC(=O)C(=O)CC(=O)c1ccccc1NC1=CC(=O)C(=O)c2ccccc21 [NSC641240] | -190.19%
CN(C)c1ccc(/C=C2\Cc3ccccc3C2=O)cc1Br [NSC643163] | -30.02%
Cc1ccc2[c](c1)[Sn]([c]1ccccc1)([c]1ccccc1)[c]1cc(C)ccc1N2C [NSC118030] | -56.74%
C=C(C)[C@@H]1CC[C@]2(CO)CC[C@]3(C)[C@H](CC[C@@H]4[C@@]5(C)CC[C@H](O)C(C)(C)[C@@H]5CC[C@]43C)[C@@H]12 [NSC4644] | -25.29%
Cc1ccc2c(ccc(C=Cc3ccc(O)c4ncccc34)[n+]2C)c1 [NSC85700] | -37.65%
NP(=O)(Oc1c2occc2cc2ccc(=O)oc12)N(CCCl)CCCl (stereo not drawn) [NSC345081] | -64.34%
Cc1c2ccncc2c(C)c2c1sc1ccccc12 [NSC119686] | -46.09%
O=C1C(CN2CCCCC2)CCCC1CN1CCCCC1 (stereo not drawn) [NSC39202] | -37.56%
CCOC(=O)c1ccc(-c2cc(C)no2)[nH]1 [NSC693053] | -6.53%
c1ccc2c(c1)nnn1c3cnccc3nc21 [NSC128734] | -52.88%
COc1ccc2c(c1[N+](=O)[O-])CC[C@@H]1[C@@H]2CC[C@]2(C)C(=O)CC[C@@H]12 [NSC321803] | -29.51%
COC(=O)C[S+]([O-])c1ccccc1 (stereo not drawn) [NSC620050] | -37.27%
Nc1nc(N)c(N=Nc2ccccc2)c(=O)[nH]1 [NSC5200] | -51.63%
COc1ccc2oc(-c3ccncc3)cc(=O)c2c1 [NSC54650] | -73.33%
Nc1ccc2c(c1)S(=O)(=O)c1cc(N)ccc1-2 [NSC13966] | -21.73%
COC(=O)[C@@]12OC[C@]34[C@H]([C@@H](O)[C@@H]1O)[C@@]1(C)CC(=O)C(O)=C(C)[C@@H]1C[C@H]3OC(=O)[C@H](OC(=O)/C=C(\C)C(C)C)[C@@H]24 [NSC165563] | -22.46%
Nc1nc(N)c(-c2cccc(C(F)(F)F)c2)c(Cc2cccc(C(F)(F)F)c2)n1 [NSC71669] | -53.065%
COc1ccc(/C=C2\N=C(c3ccccc3)OC2=O)c(OCc2ccccc2)c1 [NSC262665] | -17.00%
CCC(C#N)(c1ccccc1)N(CCc1ccccc1)C(=O)c1ccccc1 (stereo not drawn) [NSC681741] | -7.66%
COc1ccc(/C=C2\CCc3ccccc3C2=O)cc1OC [NSC643175] | -25.23%
C=C1CC(COc2cc(=O)oc3ccccc23)(c2ccccc2)OC1=O (stereo not drawn) [NSC668270] | -4.80%
N#CC1(C#N)C2C=CC(c3coc4cccc2c34)C1(C#N)C#N (stereo not drawn) [NSC629301] | -23.71%
CC[C@@]12CCCN3CC[C@]4(c5cccc(OC)c5N(C(C)=O)[C@@H]4CC1)[C@H]32 [NSC61811] | -26.07%

Compound | MEAN CpLDH INHIBITION (%)
OCCNCCN1CCN(CCCN2c3ccccc3Sc3ccc(C(F)(F)F)cc32)CC1 [NSC169676] | -69.84%
C=CC(=O)N1C/C(=C\c2ccccc2)C(=O)/C(=C/c2ccccc2)C1 [NSC632841] | -21.11%
Cc1ccccc1OCC(COC(=O)Nc1ccccc1)OC(=O)Nc1ccccc1 (stereo not drawn) [NSC635824] | -3.02%
O=C1C(c2cnc3ccccc3n2)=C(O)c2ccccc21 [NSC634224] | -37.07%
O=C(Nc1ccc2c(c1)oc(=O)c1ccccc12)C(Cl)Cl [NSC65937] | -25.00%
COc1cc2c3cc1Oc1c(OC)c(OC)cc4c1[C@H](Cc1ccc(cc1)Oc1cc(ccc1O)C[C@H]3N(C)CC2)N(C)CC4 [NSC93135] | -27.33%
C=C1C(=O)O[C@@H]2C[C@@H](C)[C@@H]3C=CC(=O)[C@@]3(C)[C@@H](O)[C@H]12 [NSC85236] | -30.32%
O=C1c2ccccc2C(=O)c2c(O)c(NCCNCCO)cc(O)c21 [NSC316157] | -4.71%
Nc1nc2c(ncn2[C@@H]2O[C@H](CO)[C@@H](O)[C@H]2O)c(=O)[nH]1 [NSC19994] | -14.24%
O=C1C(C(O)(C(F)(F)F)C(F)(F)F)CCC1C(O)(C(F)(F)F)C(F)(F)F (stereo not drawn) [NSC664181] | -5.59%
C=C1C(=O)C2=CC1CCC(=O)C1(C)CCC(OC(C)=O)C(C)(C)C1CC2O (stereo not drawn) [NSC302979] | -1.17%
O=c1ncccn1C1OC(CO)C(O)C1F (stereo not drawn) [NSC625355] | -50.28%
CC(=O)[O][Hg][c]1c(C)c(C)c(C)c(C)c1C [NSC174176] | -60.94%
CN(NC1=NCCO1)c1ccc2ccccc2c1 [NSC664286] | -26.92%
O=C(CCc1ccccc1)On1nnc2ccccc2c1=O [NSC630374] | -20.24%
O=[n+]1c2c(n([O-])c3ccccc31)-c1cccc3cccc-2c13 [NSC60309] | -23.17%
CC(C)C(NC(=O)C(C(C)C)N(C)C)C(=O)N(C)C(C(=O)N1CCCC1C(=O)N1CCCC1C(=O)NCc1ccccc1)C(C)C.Cl (stereo not drawn) [NSC669356] (ξNMe2Val-V[NMeV]PP-NHBn; configuration not given here) | -120.43%
C[CH2][Ge]1([CH2]C)[CH2]CC2(CCN(CCCN(C)C)C2)C[CH2]1 [NSC192965] | -81.94%
COC(=O)[C@@H]1c2cc3c(c(O)c2[C@@H](OC)C[C@@]1(C)O)C(=O)c1c(O)cc2c(c1C3=O)O[C@H]1O[C@@]2(C)[C@H](O)[C@@H](N(C)C)[C@@H]1O [NSC102815] | -3.42%
CC[C@H](C)[C@@H]1NC(=O)[C@@H](NC(=O)c2c3nc4c(C(=O)N[C@@H]5C(=O)N[C@@H](C(C)C)C(=O)N6CCC[C@H]6C(=O)N(C)CC(=O)N(C)[C@@H](C(C)C)C(=O)O[C@@H]5C)ccc(C)c4oc-3c(C)c(=O)c2N)[C@@H](C)OC(=O)[C@H](C(C)C)N(C)C(=O)CN(C)C(=O)[C@@H]2CCCN2C1=O [NSC18268] (I: TIP[Sar][NMeV] / II: TVP[Sar][NMeV]; ester I:1-I:C, II:1-II:C; linker I:N-II:N via Actinocin(1to9)) | -2.01%
Cc1cc([N+](=O)[O-])ccc1Nc1cccc(Cl)c1C [NSC625641] | -6.68%
CC[C@@]1(O)C[C@H](O[C@H]2C[C@H](N(C)C)[C@H](O)[C@H](C)O2)c2c(O)c3c(c(O)c2[C@H]1O[C@H]1C[C@H](N(C)C)[C@H](O)[C@H](C)O1)C(=O)c1cccc(O)c1C3=O [NSC136044] | -159.43%
COC(=O)C1(C)CCCC2(C)C3CCC4CC3(C=C4CO)CCC12 (stereo not drawn) [NSC360861] | -29.11%
Nc1ncnc2c1ncn2C1OC(CO)C(O)C1O (stereo not drawn) [NSC70422] | -12.00%
CC(C)=CC1C(C(=O)O)C1(C)C (stereo not drawn) [NSC11779] | -22.15%
